Reference: paper PMC5429603, “Discovery and characterization of verinurad, a potent and specific inhibitor of URAT1 for the treatment of hyperuricemia and gout” (Scientific Reports, 2017)
Positions count from the first letter of the chain named. Like-named read-outs stand apart in the source and are kept apart here. One block for each compound: values may come before it.

Legend:
human URAT1 [1] = target: T1, human URAT1 (Homo sapiens, UniProt Q96S37); set-up: host or cells: HEK-293T; method as in Tan et al., 2016; settings: cited from earlier work
T1 sequence (Q96S37 1-553): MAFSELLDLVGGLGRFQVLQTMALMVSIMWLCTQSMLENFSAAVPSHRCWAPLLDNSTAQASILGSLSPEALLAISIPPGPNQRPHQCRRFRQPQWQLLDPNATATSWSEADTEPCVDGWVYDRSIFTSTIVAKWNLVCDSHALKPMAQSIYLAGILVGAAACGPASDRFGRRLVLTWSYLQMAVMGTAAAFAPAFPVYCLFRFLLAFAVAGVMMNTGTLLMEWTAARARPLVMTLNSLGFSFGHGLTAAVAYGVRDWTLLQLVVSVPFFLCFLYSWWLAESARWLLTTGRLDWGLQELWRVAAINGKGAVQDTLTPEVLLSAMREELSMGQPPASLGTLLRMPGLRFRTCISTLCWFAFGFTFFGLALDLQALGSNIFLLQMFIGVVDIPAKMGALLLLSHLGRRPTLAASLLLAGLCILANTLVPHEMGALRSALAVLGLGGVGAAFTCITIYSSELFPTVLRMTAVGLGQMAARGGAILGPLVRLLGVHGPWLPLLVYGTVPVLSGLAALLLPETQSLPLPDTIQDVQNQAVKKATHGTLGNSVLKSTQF

rat URAT1-Y365F [2] = target: T2, rat URAT1-Y365F (Rattus norvegicus, UniProt Q3ZAV1, Y365F); experiment: Uric acid transport kinetics, rat URAT1-Y365F; type: cell-based
T2 construct: expressed in transfected cells; host or cells: HEK-293T
T2 sequence (Q3ZAV1 1-553 Y365F): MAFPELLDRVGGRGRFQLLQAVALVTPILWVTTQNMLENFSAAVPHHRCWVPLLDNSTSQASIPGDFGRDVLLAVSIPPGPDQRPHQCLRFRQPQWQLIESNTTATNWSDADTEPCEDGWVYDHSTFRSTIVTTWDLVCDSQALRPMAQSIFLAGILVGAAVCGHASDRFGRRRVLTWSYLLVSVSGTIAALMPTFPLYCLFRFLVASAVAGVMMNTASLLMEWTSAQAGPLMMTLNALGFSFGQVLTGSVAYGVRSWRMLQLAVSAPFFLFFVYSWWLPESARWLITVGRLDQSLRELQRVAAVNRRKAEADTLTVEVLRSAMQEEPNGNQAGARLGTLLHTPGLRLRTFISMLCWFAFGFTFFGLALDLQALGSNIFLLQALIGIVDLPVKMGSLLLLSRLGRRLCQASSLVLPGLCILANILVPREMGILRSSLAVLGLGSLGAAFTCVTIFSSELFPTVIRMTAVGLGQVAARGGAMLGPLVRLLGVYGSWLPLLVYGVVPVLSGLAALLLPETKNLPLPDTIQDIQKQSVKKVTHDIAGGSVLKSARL

Rat URAT1-N35S/Y365F = target: T3, Rat URAT1-N35S/Y365F (Rattus norvegicus, UniProt Q3ZAV1, N35S/Y365F); experiment: Uric acid transport kinetics, rat URAT1-N35S/Y365F; type: cell-based
T3 construct: expressed in transfected cells; host or cells: HEK-293T
T3 sequence (Q3ZAV1 whole entry N35S/Y365F): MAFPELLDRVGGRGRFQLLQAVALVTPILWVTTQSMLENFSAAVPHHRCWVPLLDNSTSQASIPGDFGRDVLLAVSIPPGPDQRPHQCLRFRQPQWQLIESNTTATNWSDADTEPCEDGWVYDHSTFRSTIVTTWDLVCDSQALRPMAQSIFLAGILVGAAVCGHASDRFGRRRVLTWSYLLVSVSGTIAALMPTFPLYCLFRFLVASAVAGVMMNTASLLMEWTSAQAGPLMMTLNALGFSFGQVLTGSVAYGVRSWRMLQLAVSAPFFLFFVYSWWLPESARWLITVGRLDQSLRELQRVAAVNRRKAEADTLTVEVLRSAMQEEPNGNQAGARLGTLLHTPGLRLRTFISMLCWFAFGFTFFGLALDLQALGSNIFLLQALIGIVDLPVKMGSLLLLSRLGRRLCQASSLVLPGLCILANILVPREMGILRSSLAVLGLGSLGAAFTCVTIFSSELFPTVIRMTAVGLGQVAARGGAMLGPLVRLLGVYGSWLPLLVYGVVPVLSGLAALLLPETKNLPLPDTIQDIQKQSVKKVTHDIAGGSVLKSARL
Protocol: (§1) HEK-293T cells were maintained in DMEM/high glucose/L-glutamine/HEPES supplemented with 1 mM sodium pyruvate (Life Technologies) and 10% FBS (PAA Laboratories) at 37 °C in 5% CO2. To express URAT1, OAT4 or OAT1, plasmids were reverse transfected into HEK-293T cells. DNA (10 µg) was mixed with 30 µl of DreamFect Gold (Boca Scientific) in 2 ml OptiMem (Life Technologies). After 20 minutes, 18 ml of media containing 2 × 10^7 cells in suspension was added and mixed, and 200 µl per well were plated onto white clear-bottomed poly-D-lysine coated 96-well plates (BD Biosciences). The cells were assayed the following day.
(§2) URAT1 and OAT4 activity assays were performed in assay buffer consisting of 25 mM MES pH 5.5 (from a 1 M MES solution [Sigma] adjusted to pH 5.5 with sodium hydroxide), 125 mM sodium gluconate, 4.8 mM potassium gluconate, 1.2 mM monobasic potassium phosphate, 1.2 mM magnesium sulfate, 1.3 mM calcium gluconate and 5.6 mM glucose. URAT1 inhibitors were serially diluted into assay buffer and added to the cells for 5 minutes prior to addition of substrate. URAT1-expressing cells were incubated with 100 µM ^14C-uric acid for 10 minutes and OAT4-expressing cells were incubated with 20 µM carboxyfluorescein (Life Technologies, Inc.) for 5 minutes. […] Each treatment was measured in triplicate.

rat URAT1 = target: T4, rat URAT1 (Rattus norvegicus, UniProt Q3ZAV1); set-up: method as in Tan et al., 2016; settings: cited from earlier work
T4 construct: host or cells: HEK-293T
T4 sequence (Q3ZAV1 1-553): T2 sequence (Q3ZAV1 1-553 Y365F) with F365Y

rat URAT1-Y365F [3] = target: T2, rat URAT1-Y365F; set-up: method as in Tan et al., 2016; settings: ref Tan et al., 2016; cited from earlier work
Rat URAT1-N35S = target: T5, Rat URAT1-N35S (Rattus norvegicus, UniProt Q3ZAV1, N35S); experiment: Uric acid transport kinetics, rat URAT1-N35S; type: cell-based
T5 construct: expressed in transfected cells; host or cells: HEK-293T
T5 sequence (Q3ZAV1 whole entry N35S): as the sequence (Q3ZAV1 whole entry N35S/Y365F) above, with F365Y counted along it

human URAT1 [4] = target: T1, human URAT1; experiment: Uric acid transport kinetics, human URAT1; type: cell-based; set-up: host or cells: HEK-293T; settings: human URAT1 vs rat URAT1
Protocol: as §1, §2

human URAT1 [5] = target: T1, human URAT1; experiment: URAT1 binding assay with 3H-verinurad, human URAT1 membranes; settings: for mode of inhibition of 3H-verinurad binding: human URAT1 membranes
Protocol: Membranes were prepared from cells transfected on the previous day with URAT1 expression constructs. Cells (5–10 × 10^8) were harvested in 1 ml ice-cold binding buffer (25 mM HEPES pH 7.3, 125 mM sodium gluconate) containing complete, EDTA-free protease inhibitor cocktail (Sigma). Cells were lysed with 100 strokes in a 2 ml dounce homogenizer using a tight-fitting “B” stem. Lysates were transferred to 1.5 mL Eppendorf tubes and centrifuged at 250 rcf for 5 minutes at 2 °C, and supernatants were transferred to fresh tubes and centrifuged again at 18,000 rcf for 20 minutes at 2 °C. The pellets (membrane fractions) were resuspended in 1 ml of ice-cold binding buffer containing protease inhibitors and frozen at −80 °C. Protein was measured using the Bio-Rad protein assay dye reagent concentrate.
Samples were then rapidly filtered through 25 mm glass fiber/1.2 µM PES 96-well filter plates (Corning FiltrEX 3510), and washed once with 200 µl ice-cold binding buffer. The plates were then subjected to scintillation counting. All samples were assayed in triplicate.
GraphPad Prism software was used for non-linear regression and statistical analyses. […] For kinetic measurements (K m and B max values), the “one site – specific binding” equation was used, after subtracting transport or binding measurements from control transfected cells. Statistical significance was assessed using Student’s unpaired t-tests.

human URAT1 h-F449Y = target: T6, human URAT1 h-F449Y (Homo sapiens, UniProt Q96S37, F449Y); experiment: URAT1 activity assay, h-F449Y; type: cell-based
T6 construct: expressed in transfected cells; host or cells: HEK-293T
T6 sequence (Q96S37 1-553 F449Y): T1 sequence (Q96S37 1-553) with F449Y
From the text: (§3) Human URAT1 (GenBank BC053348.1, Homo sapiens SLC22A12), rat URAT1 (NCBI NM_001034943.1, Rattus norvegicus Slc22a12) and human OAT4 (NCBI NM_018484.2, Homo sapiens SLC22A11) genes were purchased from Origene Technologies, Inc. and subcloned into pCMV6/neo using NotI. Where indicated, controls transfections used pCMV6/neo. Mutants were produced by site-directed mutagenesis using the QuikChange Lightning Multi Site-Directed Mutagenesis Kit (Agilent Technologies). […] Mutagenic primer sequences are provided in ref. [15] and mutagenic primer sequences for previously unreported mutants shown in Supplementary Table 1. All constructs used in this study were untagged. Human OAT1 was purchased from Fisher Scientific (catalog # MHS1010–7508183 in pSPORT6, NCBI NM_153276.2, Homo sapiens SLC22A6).
as §1
(§4) URAT1 and OAT4 activity assays were performed in assay buffer consisting of 25 mM MES pH 5.5 (from a 1 M MES solution [Sigma] adjusted to pH 5.5 with sodium hydroxide), 125 mM sodium gluconate, 4.8 mM potassium gluconate, 1.2 mM monobasic potassium phosphate, 1.2 mM magnesium sulfate, 1.3 mM calcium gluconate and 5.6 mM glucose. URAT1 inhibitors were serially diluted into assay buffer and added to the cells for 5 minutes prior to addition of substrate. URAT1-expressing cells were incubated with 100 µM ^14C-uric acid for 10 minutes and OAT4-expressing cells were incubated with 20 µM carboxyfluorescein (Life Technologies, Inc.) for 5 minutes. Cells were then washed three times in 25 mM MES pH 5.5/125 mM sodium gluconate, and solubilized in Ultima Gold (Perkin Elmer) prior to liquid scintillation counting. Each treatment was measured in triplicate.

human URAT1 h-F241Y = target: T7, human URAT1 h-F241Y (Homo sapiens, UniProt Q96S37, F241Y); experiment: URAT1 activity assay, h-F241Y; type: cell-based
T7 construct: expressed in transfected cells; host or cells: HEK-293T
T7 sequence (Q96S37 1-553 F241Y): T1 sequence (Q96S37 1-553) with F241Y
From the text: as §3, §1, §4

human URAT1 [6] = target: T1, human URAT1; experiment: URAT1 activity assay (14C-uric acid transport), human URAT1; type: cell-based; set-up: host or cells: HEK-293T; settings: human URAT1 wild type in HEK-293T; 100 µM 14C-uric acid, pH 5.5; read-out: IC50, inhibition of transport activity
Protocol: as §1, §4

human URAT1 h-R477K = target: T8, human URAT1 h-R477K (Homo sapiens, UniProt Q96S37, R477K); experiment: URAT1 activity assay, h-R477K; type: cell-based
T8 construct: expressed in transfected cells; host or cells: HEK-293T
T8 sequence (Q96S37 1-553 R477K): T1 sequence (Q96S37 1-553) with R477K
From the text: as §3, §1, §4

[7] = ref Tan et al., 2016, listed as urate

fold increase in urate affinity over rat URAT1 (rat URAT1-Y365F [2]): 1.5 fold
K m (µM), uric acid transport affinity (Rat URAT1-N35S/Y365F; Rat URAT1-N35S/Y365F): 222 ± 16 µM
fold increase in urate affinity relative to rat URAT1 (Rat URAT1-N35S/Y365F; rat URAT1-N35S/Y365F): ~4 fold
K m (µM), uric acid transport affinity (Rat URAT1-N35S; Rat URAT1-N35S): 697 ± 93 µM
urate affinity phenotype relative to rat URAT1 (Rat URAT1-N35S; rat URAT1-N35S): no phenotype
fold higher affinity for urate of human URAT1 relative to rat URAT1 (human URAT1 [4]): 7 fold
SMILES: O=c1[nH]c(=O)c2[nH]c(=O)[nH]c2[nH]1 [uric acid]
K m (µM), uric acid transport affinity (human URAT1 [1]; [7]): 122 µM
K m (µM), uric acid transport affinity (human URAT1 [1]; ref Tan et al., 2016): 122 ± 3 µM
K m (µM), uric acid transport affinity (rat URAT1; [7]): 857 µM
K m (µM), uric acid transport affinity (rat URAT1; ref Tan et al., 2016): 857 ± 6 µM
K m (µM), uric acid transport affinity (rat URAT1-Y365F [3]): 560 ± 28 µM

mode of inhibition of 3H-verinurad binding (human URAT1 [5]): competitive mode of inhibition
SMILES: CCCN(CCC)S(=O)(=O)c1ccc(C(=O)O)cc1 [probenecid]

fold reduced affinity compared to human URAT1 (human URAT1 h-F449Y; h-F449Y): 3 fold
IC50 (human URAT1 h-F449Y; h-F449Y binding site point mutant): 9.7 µM
fold reduced affinity compared to human URAT1 (human URAT1 h-F241Y; h-F241Y): 7 fold
IC50 (human URAT1 h-F241Y; h-F241Y binding site point mutant): 23 µM
IC50 (human URAT1 [6]): 3.4 µM
fold increased affinity compared to human URAT1 (human URAT1 h-R477K; h-R477K): 2 fold
IC50 (human URAT1 h-R477K; h-R477K binding site point mutant): 2 µM
IC50 (human URAT1 [5]): 8.6 µM
Ki (human URAT1 [5]): 52 µM
mode of inhibition of 3H-verinurad binding (human URAT1 [5]): competitive mode of inhibition
SMILES: O=C1C(CC[S+]([O-])c2ccccc2)C(=O)N(c2ccccc2)N1c1ccccc1 (centres unmarked) [sulfinpyrazone, reference compound]

mode of inhibition of 3H-verinurad binding (human URAT1 [5]): competitive mode of inhibition
SMILES: CCc1oc2ccccc2c1C(=O)c1cc(Br)c(O)c(Br)c1 [benzbromarone, Benzbromarone]
